Where a SMILES comes first, the peptide text is derived from it.
Tests used:
[1] = Oscillatory time sweep (hydrogel stiffness at t = 100 min, gelation speed); type: physicochemical; settings: for Stiffness (storage modulus G′ at t = 100 min) / Speed (gelation speed, dG′/dt 5–10 min): time sweep, mean ± SD
Experimental: Dynamic oscillatory amplitude sweeps up to 150% strain were performed at 37°C using an Anton Paar MCR301 rheometer equipped with a 10 mm diameter stainless steel parallel plate geometry at a 0.9 mm measuring gap. The amplitude sweep tests were performed to measure storage moduli (G′) within the linear viscoelastic region. Calculations of the gel breaking points (yield points) were performed with MATLAB depending on the different peptide concentrations. Therefore, the yield strain was defined as the point where G′ is less than 95% of its original value. Oscillatory time sweep experiments were performed to study the gelation speed and hydrogel stiffness. Time sweeps up to 150 min measuring time using a frequency of 1 rad s^−1 and amplitude gamma of 0.05% were used. SAP hydrogel stiffness was determined after the equilibrium of the storage modulus (G′) was reached (t = 100 min). To determine the gelation speed, the slope of increasing storage modulus over time was calculated in the interval from t = 5 to 10 min after placing peptide solutions onto the rheometer.
To study the influence of divalent ions and different media on SAP hydrogel stiffness, gelation speed and gel breaking points (yield points), SAPs were prepared at a concentration of 15 mg ml^−1 in the different media, Tris–NaCl, Tris–MgSO4, DMEM or artificial saliva, according to table 1. All experiments were done at least in duplicate. Statistical evaluation was performed with GRAPHPAD PRISM version 6.0 based on a one-way ANOVA test followed by Tukey's multiple comparison test.

[2] = SAP hydrogel dissolution in PBS or TYSB medium (peptide content of supernatant); type: physicochemical; settings: 37°C, 20 mg ml^-1 P11-4, 15 mg ml^-1 others, Qubit Protein Assay, mean ± SD, n = 3
Experimental: SAP hydrogel dissolution and degradation properties of the peptides in the presence and absence of neutrophilic elastase and microorganisms were measured by determining the peptide content of the supernatant. Therefore, SAPs were assembled in PBS at concentrations of 20 mg ml^−1 for P11-4 and 15 mg ml^−1 for P11-8, P11-13/14 and P11-28/29. The assay was performed in a 96-well plate with gel volumes of 100 µl well^−1. 86 units ml^−1 elastase (Innovative Research, USA) (100 µg ml^−1) were added to the assembled peptides in PBS solution. After 24 h incubation at 37°C and 5% CO2, 10 µl of the supernatant was sterilely removed after 24 and 168 h and measured indirectly by monomeric peptide concentration in the supernatant using the Qubit® Protein Assay (Q33211; Thermo Fisher; fluorescence at 485/590 nm) and transferred back for the remainder of the experiment allowing peptide hydrogel degradation measurement without disturbing the hydrogel to buffer fluid balance. The measurements are based on the fact that degraded peptides cause disassembly of the fibrils, as assembly rules are no longer given, resulting in an increase in monomeric SAP in solution. SAP concentrations were calculated based on respective peptide standard curves. For data analysis, SAP concentrations measured in the supernatant were calculated as a percentage of the specific starting concentrations of each peptide system. Statistical analysis was done using a two-way ANOVA followed by Sidak's multiple comparison test.
The stability of the hydrogels versus bacterial degradation was tested by the exposure to the bacterial strains Streptococcus mutans (S. mutans), Pseudomonas aeruginosa (P. aeruginosa) and Staphylococcus aureus (S. aureus; all from Leibniz-Institut DSMZ GmbH). Therefore, the bacterial strains were applied (10^6 CFU ml^−1) on the top of each gel (20 mg ml^−1 for P11-4 and 15 mg ml^−1 for P11-8, P11-13/14 and P11-28/29) in their respective media (Neurobasal medium for P. aeruginosa (Thermo Fisher), Tryptic Soy Broth (TYSB) medium for S. mutans and S. aureus). After 1 and 7 days of incubation at 37°C, 10 µl of each supernatant was analysed subsequent to centrifugation of the samples using the Qubit® Protein Assay. Calculations were performed as described previously for the elastase degradation study. Statistical analysis was performed with Graphpad Prism version 6.0 using a two-way ANOVA followed by Dunnett's multiple comparison test.

[3] = literature, cited from earlier work
Description: The topographical structure of SAP hydrogels is important for the three-dimensional arrangement of cells within scaffolds. Zhang et al. state that the fibres of SAP hydrogels resemble the nanometre scale of natural polymer networks and thus allow three-dimensional cell growth. […] (figure 1). […] Moreover, they observed the formation fibre entanglements with diameters of 30 nm. The phenomenon of fibril clustering was also reported by Zhang et al. for the peptides KFE8 and KLD12, characterized by a typical single fibre width of 7 nm and thicker diameters for the bundles of fibres.

[4] = Fibre width of dried SAP hydrogels by scanning electron microscopy; type: physicochemical; settings: SEM of critical-point-dried hydrogel, 15 mg ml^-1 in Tris–NaCl, ionic strength 140 mM, pH 7.2–8.0, assembled overnight; 25 fibre widths per picture, ImageJ; mean ± SD
Experimental: Nanofibrillar structure of SAP hydrogels was formed for scanning electron microscopy (SEM) (Zeiss SUPRA® 40VP) at a concentration of 15 mg ml^−1 in Tris–NaCl buffer to a final ionic strength of 140 mM and a final pH of 7.2–8.0, as described in table 1. SAP hydrogels were assembled overnight. Self-assembly was apparent due to the gelation and β-sheet formation of the fibrillar structure as described by Aggeli et al. and Carrick et al. (by circular dichroism, Fourier transform infrared spectroscopy and transmission electron microscopy) and was further confirmed in the present study for P11-4 and P11-8 (see electronic supplementary material, figures S4, S6 and S7). SAP hydrogels were fixed with a glutaraldehyde solution (4% in borate buffer, using 0.1 ml per 0.1 ml peptide hydrogel) for 24 h. Gels were then dehydrated by increasing ethanol concentration in steps (25%, 50%, 60%, 70%, 80%, 90%, 100% ethanol) at 15 min intervals. The last step (100% ethanol) was repeated three times. Afterwards, critical point drying (Balzers Union, CPD020) was applied to stabilize the natural three-dimensional network structure. Finally, the network structures were glued on an SEM stub with carbon tape and sputter coated with 2.5 nm gold–palladium (Thermo VG Scientific, Polaron, SC7620). […] Fibre diameters were analysed with IMAGEJ software. Twenty-five fibre widths were measured for each picture.

[5] = 15 mg ml^-1, artificial saliva, n = 3
[6] = 15 mg ml^-1, serum-free DMEM, n = 3
[7] = artificial saliva versus DMEM, 15 mg ml^-1

**Q.** Which results are given for `CC(=O)N[C@@H](CCC(N)=O)C(=O)N[C@@H](CCC(N)=O)C(=O)N[C@@H](CCCNC(=N)N)C(=O)N[C@@H](Cc1ccccc1)C(=O)N[C@@H](CCC(=O)O)C(=O)N[C@@H](Cc1c[nH]c2ccccc12)C(=O)N[C@@H](CCC(=O)O)C(=O)N[C@@H](Cc1ccccc1)C(=O)N[C@@H](CCC(=O)O)C(=O)N[C@@H](CCC(N)=O)C(=O)N[C@@H](CCC(N)=O)C(N)=O` [P11-4, CH3CO-QQRFEWEFEQQ-NH2] (Ac-QQRFEWEFEQQ-NH2)?
**A.** Stiffness (storage modulus G′ at t = 100 min) ([1]; 15 mg ml^-1, Tris–MgSO4, 1 rad s^-1, 37°C, n = 3): 9.5±2.7 kPa; Speed (gelation speed, dG′/dt 5–10 min) ([1]; 15 mg ml^-1, Tris–MgSO4): 0.8±0.1 G`/min; Stiffness (storage modulus G′ at t = 100 min) ([1]; 15 mg ml^-1, Tris–NaCl, 1 rad s^-1, 37°C, n = 3): 5.0± 2.1 kPa; Speed (gelation speed, dG′/dt 5–10 min) ([1]; 15 mg ml^-1, Tris–NaCl): 1.6± 0.6 G`/min; Speed (gelation speed, dG′/dt 5–10 min) [1, 5]: 2.3 ± 0.9 G`/min; Stiffness (storage modulus G′ at t = 100 min) [1, 5]: 4.9 ± 1.6 kPa; Speed (gelation speed, dG′/dt 5–10 min) [1, 6]: 1.3 ± 0.4 G`/min; Stiffness (storage modulus G′ at t = 100 min) [1, 6]: 0.4± 0.01 kPa; factor of increase of gelation (speed) in artificial saliva [1, 7]: 1.8; factor of increase of hydrogel stiffness if prepared with artificial saliva [1, 7]: 12; relative peptide amount in supernatant (% of peptide starting concentration) ([2]; Medium (TYSB), 1 d): 0.4± 0.1%; relative peptide amount in supernatant (% of peptide starting concentration) ([2]; Medium (TYSB), 7 d): 4.6± 2.5%; relative peptide amount in supernatant (% of peptide starting concentration) ([2]; PBS, 1 d, gel assembled in PBS, 100 µl, fluorescence 485/590 nm): 10.6± 5.7%; relative peptide amount in supernatant (% of peptide starting concentration) ([2]; PBS, 7 d, gel assembled in PBS, 100 µl, fluorescence 485/590 nm): 9.4± 4.4%; fibril width ([3]; P11-4 and P11-8 prepared in NaCl): 14 nm; diameter of fibre entanglements ([3]; prepared in NaCl): 30 nm; mean fibre width [4]: 32 ± 6.6 nm
